Source: patent publication US9918966B2, “Anti-cancer compositions and methods” (The Penn State Research Foundation, priority 2013, dated 2018)
Like-named read-outs stand apart in the source and are kept apart here.

Columns and labels:
[1] = tested on: FOM103 normal human melanocytes; test: Cell viability, MTS assay; format: cell-based; settings: Melanocyte
Protocol: (§1) Cell viability, proliferation, apoptosis and cell cycle analysis: Viability and IC50 (μmol/L) of normal human melanocytes, fibroblast and melanoma cells following treatment with inhibitors are measured using the MTS assay (Promega, Madison, Wis.) described in Sharma A, et al., Clin Cancer Res 2009; 15:1674-85; and Madhunapantula S V, et al., Mol Cancer Ther 2008; 7:1297-308. […] IC50 values for each inhibitor in μmol/L for respective cell lines are measured from three independent experiments using GraphPad Prism version 4.01 (GraphPad Software, La Jolla, Calif.).
(§2) The number of viable cells is measured using MTS and percentage decrease in viability calculated. IC50 values for each inhibitor in μmol/L for respective cell lines are measured from three independent experiments using GraphPad Prism version 4.01 (GraphPad Software, La Jolla, Calif.).

[2] = tested on: WM115 vertical growth phase melanoma cells; test: Cell viability, MTS assay; format: cell-based; settings: Homo sapiens, WM-115
Protocol: as §1, §2

[3] = tested on: WM35 radial growth phase melanoma cells; test: Cell viability, MTS assay; format: cell-based; settings: Homo sapiens
Protocol: as §1, §2

[4] = tested on: FF2441 human fibroblast cells; test: Cell viability, MTS assay; format: cell-based
Protocol: as §1, §2

[5] = Toxicity assessments: blood markers and H&E of vital organs; format: in vivo
Protocol: Four to six week old athymic-Foxn1^nu nude mice (Harlan Sprague Dawley, IN), are treated with either vehicle control or selenocoxib-1-GSH (n=5) as described in tumor kinetics studies. At the end of treatment, blood is collected from each sacrificed animal in a plasma separator tube with lithium heparin (BD Microtainer) following cardiac puncture and analyzed for ALKP (Alkaline phosphatase), ALT (Alanine aminotransferase), AST (Aspartate aminotransferase), ALB (Total albumin), TBIL (Total bilirubin), CREA (Creatinine), BUN (Blood urea nitrogen), CHOL (Total cholesterol), TRIG (Total triglyceride) and GLU (Glucose) levels to ascertain possible liver, heart, kidney, and pancreas related toxicity. A portion of vital organs, liver, heart, kidney, pancreas, and spleen-from each animal is formalin-fixed and paraffin-embedded to examine toxicity-associated changes in cell morphology and tissue organization following H&E staining as described in Nguyen N, et al. Cancer Prev Res (Phila) 2011; 4: 248-58.

[6] = tested on: normal human melanocytes or fibroblast cells
Protocol: as §1

UACC 903 melanoma cells = test: Reactive oxygen species (ROS) assay; format: cell-based, human; settings: 5, 10, 15 and 20 μmol/L, 24 hours, compared to celecoxib and selenocoxib-1
Protocol: (§3) Intracellular ROS are monitored according to a procedure described in detail in Smasundaram et al., Cancer Res., 62:3868-3875, 2002. […] After 24 hours treatment, total cells (floating and adherent) are collected in ice-cold phosphate-buffered saline and 5×10^3 cells/well placed in 100 microliters culture medium in a 96-well plate containing 10 micromoles/liter 2′,7′-dichlorfluorescein-diacetate (commercially available from Sigma, St. Louis, Mo.) and incubated at 37° C. for 30 minutes. The amount of ROS present compared to DMSO vehicle treated cells was represented in arbitrary units.
(§4) Selenocoxib-1-GSH inhibits the generation of ROS.

1205 Lu melanoma cells = test: Reactive oxygen species (ROS) assay; format: cell-based, human; settings: 5, 10, 15 and 20 μmol/L, 24 hours, compared to celecoxib and selenocoxib-1
Protocol: as §3, §4

[7] = From the text: Number of mice surviving and changes in body weight after 7 days of drug treatment is scored (Table I).
UACC 903 tumors = format: in vivo, athymic-Foxn1nu nude mice
Protocol: (§5) Tumor kinetics are measured by subcutaneous injection of 1×10^6 1205 Lu or UACC 903 cells in 0.2 mL of DMEM supplemented with 10% FBS subcutaneously injected above both left and right rib cages of 3- to 4-wk-old female athymic-Foxn1^nu nude mice (Harlan Sprague Dawley, IN).

1205 Lu tumors = format: in vivo, athymic-Foxn1nu nude mice
Protocol: as §5

PC-3 (Prostate) = test: IC50 for killing cancer cells; format: cell-based; settings: Homo sapiens
From the text: (§6) Therapeutic universality of selenocoxib-1-GSH for killing cancer cells is examined by treating pancreatic (MiaPaca-2), breast (MDA-MB-231), prostate (PC-3) or sarcoma (HT-1080) and colon (Caco2) cell. lines with the drug and establishing the IC50 for each cell line, Table III. Selenocoxib-1-GSH kills the various cancer cell lines at 2-3-fold lower concentrations than normal fibroblast cells.

HT-1080 (Fibro sarcoma) = test: IC50 for killing cancer cells; format: cell-based; settings: Homo sapiens
From the text: as §6

MiaPaca-2 (Pancreas) = test: IC50 for killing cancer cells; format: cell-based; settings: Homo sapiens, MIA PaCa-2
From the text: as §6

Caco-2 (Colon) = test: IC50 for killing cancer cells; format: cell-based; settings: Homo sapiens
From the text: as §6

MDA-MB-231 (Breast) = test: IC50 for killing cancer cells; format: cell-based; settings: Homo sapiens
From the text: as §6

[8] = tested on: 1205 Lu metastatic melanoma cells; test: cells; settings: Homo sapiens
Protocol: as §1, §2

[9] = tested on: UACC 903 metastatic melanoma cells; test: cells; settings: Homo sapiens
Protocol: as §1, §2

Compound NC(CCC(=O)NC(CS[Se]Cc1cc(-c2ccccc2)n(-c2ccc(S(N)(=O)=O)cc2)n1)C(=O)NCC(=O)O)C(=O)O (stereo not drawn) [Selenocoxib-1-GSH, selenocoxib-1-glutathione] has an IC50 ([1]; FOM103, 24 h) of 66.3 ± 3 µM, an IC50 ([1]; FOM103, 48 h) of 53.4 ± 4.3 µM and an IC50 ([1]; FOM103, 72 h) of 41.2 ± 3.2 µM. It also gave an IC50 ([2]; WM115, 24 h) of 30.1 ± 3.3 µM, an IC50 ([2]; WM115, 48 h) of 5.8 ± 0.9 µM and an IC50 ([2]; WM115, 72 h) of 3.1 ± 0.4 µM. For the same compound, the IC50 ([3]; WM35, 24 h) was 52.6 ± 3.8 µM, the IC50 ([3]; WM35, 48 h) was 4.1 ± 0.8 µM and the IC50 ([3]; WM35, 72 h) was 2.7 ± 0.4 µM. For the same compound, the IC50 ([4]; FF2441, 24 h) was > 100 µM, the IC50 ([4]; FF2441, 48 h) was 75.5 ± 5.6 µM and the IC50 ([4]; FF2441, 72 h) was 36.3 ± 5.6 µM. The “H&E stained tissue sections of liver, heart, lung, kidney or spleen” value ([5]; at the end of treatment, versus DMSO vehicle) was “no changes in the morphology or architecture”, the “levels of blood markers for major organ related toxicity (ALKP, ALT, AST, ALB, TBIL, CREA, BUN, CHOL, TRIG, GLU)” value ([5]; mouse, in vivo) was “negligible differences compared to controls” and the “toxicity on normal cells relative to melanoma cells” value [6] was “significantly lower toxicity on normal cells”. The ROS (UACC 903 melanoma cells) was “more dramatically decreased ROS”, the ROS (1205 Lu melanoma cells) was “more dramatically decreased ROS” and the “% of weight loss” value ([7]; 0.127 μmoles (10 PPM) intraperitoneally daily for seven days) was “No loss”. For the same compound, the “Mortality at Day 7” value ([7]; 0.127 μmoles intraperitoneally daily for seven days, 3 mice/group (Selenocoxib-1-GSH: 10 PPM)) was 0/3, the “% of weight loss” value ([7]; 0.254 μmoles (20 PPM) intraperitoneally daily for seven days) was 2.0% and the “Mortality at Day 7” value ([7]; 0.254 μmoles (20 PPM) intraperitoneally daily for seven days, 3 mice/group) was 0/3. For the same compound, the mortality ([7]; 0.127 to 0.254, seven days) was “no mortality”, the weight loss ([7]; 0.127 to 0.254 moles (equivalent to 5 to 10 ppm of selenium), seven days) was ~2% and the “decrease in tumor volume” value (UACC 903 tumors; UACC 903, at the end of treatment, compared to controls) was ≤ 70%. The “reduction of tumor development” value (UACC 903 tumors; UACC 903, 0.127 μmoles (10 ppm selenium) intraperitoneally on alternate days for 4 weeks, compared to DMSO control) was 52%, the “day from which a significant decrease in xenograft tumor development is observed” value (UACC 903 tumors; UACC 903 tumors, compared to vehicle DMSO) was 22 days and the “day from which a significant decrease in xenograft tumor development is observed” value (1205 Lu tumors; 1205 Lu tumors, compared to vehicle DMSO) was 16 days. For the same compound, the “decrease in tumor volume” value (1205 Lu tumors; 1205 Lu, at the end of treatment, compared to controls) was ≤ 70%, the “reduction of tumor development” value (1205 Lu tumors; 1205 Lu, 0.127 μmoles (10 ppm selenium) intraperitoneally on alternate days for 4 weeks, compared to DMSO control) was 70.5% and the IC50 (PC-3 (Prostate)) was 16.4 ± 2.11 µM. It also gave an IC50 (HT-1080 (Fibro sarcoma)) of 9.1 ± 1.89 µM, an IC50 (MiaPaca-2 (Pancreas)) of 13.3 ± 1.01 µM and an IC50 (Caco-2 (Colon)) of 16.1 ± 0.87 µM. It also gave an IC50 (MDA-MB-231 (Breast)) of 15.4 ± 2.51 µM, an IC50 ([8]; 24 h) of 24.6 ± 2.2 µM and an IC50 ([8]; 48 h) of 17.2 ± 1.6 µM. It also gave an IC50 ([8]; 72 h) of 10.6 ± 2.6 µM, a cytotoxicity at 12.5 µM ([8]; 72 h, read-out: decrease in cell viability) of 40 to 60% and an IC50 ([9]; UACC-903, 24 h) of 30.9 ± 2.8 µM. For the same compound, the IC50 ([9]; UACC-903, 48 h) was 20.6 ± 1.7 µM, the IC50 ([9]; UACC-903, 72 h) was 14.2 ± 1.2 µM and the cytotoxicity at 12.5 µM ([9]; UACC-903, 72 h, read-out: decrease in cell viability) was 40 to 60%.
